Reference: patent US20080132481A1, “INTERLEUKIN-4 GENE EXPRESSION INHIBITORS” (AVENTIS PHARMACEUTICALS INC., priority 2002, published 2008)

How the values were obtained:
[1] = system: sheep allergic to Ascaris suum; assay: Sheep asthma model (Ascaris suum antigen challenge); type: in vivo
Description: Briefly, transpulmonary pressure, pulmonary resistance (RL), specific lung resistance (SRL airway hyperreactivity, airway responsiveness, are determined.
Venous blood samples (˜5 ml) are obtained from a peripheral leg vein or the jugular vein for pharmacokinetic data. Measurement of Airway Mechanics: The unsedated sheep are restrained in a cart in the prone position with their heads immobilized. After topical anesthesia of the nasal passages with 2% lidocaine solution, a balloon catheter is advanced through one nostril into the lower esophagus. The animals are […] with a cuffed endotracheal tube through the other nostril using a flexible fiberoptic bronchoscope as a guide. (The cuff of the endotracheal tube is inflated only for the measurement of airway mechanics and during aerosol challenges to prevent undue discomfort. This procedure has no effect on airway mechanics). Pleural pressure is estimated with the esophageal balloon catheter (filled with one ml of air) which is positioned 5-10 cm from the gastroesophageal junction. In this position the end expiratory pleural pressure ranges between −2 and −5 cm H20. Once the balloon is placed, it is secured so that it remains in position for the duration of the experiment. Lateral pressure in the trachea is measured with a sidehole catheter (inner dimension, 2.5 mm) advanced through and positioned distal to the tip of the endotracheal tube. Transpulmonary pressure, the difference between tracheal and pleural pressure, is measured with a differential pressure transducer catheter system. […] The signals of flow and transpulmonary pressure is recorded on an oscilloscope recorder which is linked to a computer for on-line calculation of RL from transpulmonary pressure, respiratory volume (obtained by digital integration) and flow. […] Immediately after the measurement of RL, thoracic gas volume (Vtg) is measured in a constant volume body plethysmograph to obtain specific lung resistance (SRL=RL·Vtg) in L×cm H20/LPS. […]

[2] = system: IL-4; assay: Human primary Th2 cells, IL-4 by ELISA; type: cell-based; conditions: for IL-4 (% control) mean: human Th2 cells, anti-CD3/anti-CD28, 48 hr; for IC50: human primary Th2 cells activated with anti-CD3 and anti-CD28 (Table 5)
Description: Briefly, CD4^+CD45RA^+ T cells, isolated from donor peripheral blood mononuclear cells of healthy donors, are educated in the presence of anti-CD3/CD28 antibodies and various growth factors to obtain either a Th1-like or Th2-like phenotypes as determined by the known cytokine profiles of these two cell types.
(§1) Peripheral blood mononuclear cells (PBMC) are prepared from human blood by Ficoll-Hypacque (Pharmacia). The cells are washed two times in Hanks balanced salt solution (HBSS) and counted.
Naïve T cells (CD4^+/CD45RA) are prepared by negative selection method using following antibodies and Dynabeads: anti-CD8, anti-HLA-DR, (where HLA means human leucocyte antigen) anti-CD14, anti-CD16, anti-CD19, anti-CD45RO antibodies (all from R&D Systems, 1-2 μg/ml) are added to the cells, and the cells are kept on ice for 30 min. The cells are washed two times in HBSS, and goat anti-mouse Ig-beads, (bead:target ratio, 5:1) are added. The cells and beads are slowly rotated at 4° C. for 20 min. (following the protocol supplied from Dynal). The supernatant is removed and fresh goat anti-mouse Ig-beads are added to the supernatant, which is slowly rotated at 4° C. for 20 min. The cells are counted and phenotypically characterized by flow cytometric analysis.
Generation of Th1/Th2 cells: Twenty four well plates are coated with 300 μL anti-CD3 Ab (10 μg/ml, in PBS 1-2 h at 37° C. or overnight at 4° C.), and washed two times with PBS. […]/CD45RA^+ cells at a density of 10^6/ml in RPMI, is prepared and added to RPMI medium containing 10% Hyclone serum/glutamine and 1-2 μg/ml anti-CD28 Ab. The cells are split in two aliquots. For Th1 cells: anti-IL-4 Ab (1-2 μg/ml), IFN-γ (1 μg/ml, or 5000 units/ml) are added to the wells. For Th2 cells: IL-4 (100-200 ng/ml), anti-IFN-γ neutralizing Ab (1-2 μg/ml), anti-IL-12 neutralizing Ab (1-2 μg/ml) are added into the wells. The cells are incubated for 2-3 days at 37° C. The cells are transferred to fresh wells and grown in 200 units/ml IL-2 for 2 weeks by feeding them every other day with IL-2 containing medium and splitting the cultures 1:2 or 1:3 as needed. The degree of polarization is determined by intracellular staining of cells with anti-IFN-γ and anti-IL-4 antibodies from Pharmingen, and using flow cytometry from Becton Dickinson (BD), according to manufacturers description. The cells are stimulated with PHA and alloantigens at day 14 and 28 as described below. Eight days after the second allostimulation the cells can be used for compound screening or frozen for future use. For compound testing, large quantities of Th1 and Th2 cells derived from a given donor (NYTh1 and NYTh2) were expanded and frozen as aliquots in liquid nitrogen. The cells are thawed and cultured as and when needed. The thawed cells are stimulated with alloantigen/PHA combination. The cells are used for compound screening after 8-10 days in culture.
Re-stimulation by allogeneic cells: Human PBMCs, to be used as alloantigens, are isolated from freshly drawn blood by Ficoll separation. Cells are resuspended in medium containing 50 μg/ml mitomycin C and incubated for 40 minutes at 37° C. and then washed extensively to remove all of the Mitomycin C. Cells are counted and diluted to a final concentration of 2×10^6/ml in medium containing 10 μg/ml PHA and 200 units/ml IL-2.

[3] = system: Swiss 3T3 fibroblasts; assay: In vitro cytotoxicity assay on contact inhibited 3T3 fibroblasts (MTS); type: cell-based
Description: Other toxicity assays may be used.
Any compound killing 3T3 fibroblast cells was omitted from further studies.
Contact inhibited Swiss 3T3 fibroblasts are purchased from ATCC.
All compound dilutions are assayed in triplicate. […] Cells are returned to the incubator for 2 days.
Media is added to blank wells for background calculations.
Note that starting concentration of CsA was 1 μM.

[4] = system: IL-13; assay: Human primary Th2 cells, IL-13 by ELISA; type: cell-based; conditions: human primary Th2 cells activated with anti-CD3 and anti-CD28 (Table 5)
Excerpt: (§2) The methods described herein permit polarization of primary human peripheral blood cells into Th1 and Th2 cells and generation of sufficiently large quantities of Th1 and Th2 cells, e.g., billions of cells, to allow drug screening. Briefly, CD4^+CD45RA^+ T cells, isolated from donor peripheral blood mononuclear cells of healthy donors, are educated in the presence of anti-CD3/CD28 antibodies and various growth factors to obtain either a Th1-like or Th2-like phenotypes as determined by the known cytokine profiles of these two cell types. Primary human Th1 cells secreted IFN-γ and IL-2 cytokines while primary human Th2 cells secreted IL-4, IL-5, IL-13 and basal amounts of IFN-γ that are measurable by enzyme linked immuno absorption assay (ELISA).
as §1
(§3) Naïve T cells (CD4^+/CD45RA) are prepared by negative selection method using following antibodies and Dynabeads: anti-CD8, anti-HLA-DR, (where HLA means human leucocyte antigen) anti-CD14, anti-CD16, anti-CD19, anti-CD45RO antibodies (all from R&D Systems, 1-2 μg/ml) are added to the cells, and the cells are kept on ice for 30 min. […] The cells are counted and phenotypically characterized by flow cytometric analysis. […]

[5] = system: IFN-γ; assay: Human primary Th2 cells, IFN-γ by ELISA; type: cell-based; conditions: human primary Th2 cells activated with anti-CD3 and anti-CD28 (Table 5)
Excerpt: as §2, §1, §3

[6] = system: Human Th2 cells; assay: Human primary Th2 cells, proliferation (MTS viability test); type: cell-based; conditions: human primary Th2 cells activated with anti-CD3 and anti-CD28 (Table 5); read-out: Prolif. IC50
Excerpt: as §2, §1, §3

[7] = system: IL-5; assay: Human primary Th2 cells, IL-5 by ELISA; type: cell-based; conditions: human primary Th2 cells activated with anti-CD3 and anti-CD28 (Table 5)
Excerpt: as §2, §1, §3

[8] = system: ovalbumin specific IgE; assay: OVA induced IgE in mice; type: in vivo, mouse; conditions: serum day 15, 10 mg/kg intraperitoneally once a day from day 6 to day 14, vehicle 150.8
Description: Table 10 summarizes effects of 3-(4-pyridinylamino)-1H-indole-2-carboxylic acid on OVA induced IgE in mice. Female mice (5-8 week age, Balb/c, Charles River) were used in this study. Ovalbumin (Sigma) was adsorbed to Aluminum Hydroxide Adsorptive Gel, Inter, and injected 10 μg/0.2 ml/mouse intraperitoneally on experimental day 0 and day 7. Dexamethasone (Sigma) and 3-(4-pyridinylamino)-1H-indole-2-carboxylic acid (Example 28) were in 10% HPCD (Hydroxypropyl-β-Cyclodextrin, Aldrich). Dexamethasone (10 mg/kg), 3-(4-pyridinylamino)-1H-indole-2-carboxylic acid (Example 28) (3 and 10 mg/kg) and 10% HPCD (0.2 ml/mouse) are injected into mice intraperitoneally once a day from day 6 to day 14. They were bled at day 15. Serum ovalbumin specific IgE levels were determined by standard ELISA using a goat anti-mouse IgE antibody labeled with alkaline phosphatase. The anti-OVA titers were determined by malting serial dilutions of the test sera and comparing with vehicle control.

[9] = 3 mg/kg aerosol 30 min before antigen challenge, 2 sheep per group (FIG. 3A)

## O=C(O)c1[nH]c2ccccc2c1Nc1ccncc1 [Example 28, 3-(4-Pyridinylamino)-1H-indole-2-carboxylic acid]
[1]; [9]
  antigen-induced early bronchial response: acute increase in specific lung resistance (SRL): did not affect
  antigen-induced late bronchial response (SRL): blocked the late response
[1]; 3 mg/kg, 2 sheep (FIG. 3B)
  post challenge airway responsiveness (decrease of PC400 after antigen challenge): prevented this effect
[2]; 0.01 μM
  IL-4 (% control) mean: 102.15 % control
[2]; 0.03 μM
  IL-4 (% control) mean: 65.30 % control
[2]; 0.1 μM
  IL-4 (% control) mean: 59.75 % control
[2]; 0.3 μM
  IL-4 (% control) mean: 45.00 % control
[2]; 1 μM
  IL-4 (% control) mean: 42.55 % control
[2]; 3 μM
  IL-4 (% control) mean: 36.40 % control
[2]; 10 μM
  IL-4 (% control) mean: 30.80 % control
[3]
  toxic effects on quiescent 3T3 cells (in words): no toxic effects

## CCOC(=O)c1[nH]c2cc(Cl)cc(Cl)c2c1N(C)C(=O)c1ccccc1 [Example 83, 3-((Benzoyl)methylamino)-4,6-dichloro-1H-indole-2-carboxylic acid ethyl ester]
[2]
  IC50: 1 µM
[4]
  IC50: > 10 µM
[5]
  IC50: > 10 µM
[6]
  IC50: > 10 µM
[7]
  IC50: > 10 µM

## C[C@@H]1C[C@H]2[C@@H]3CCC4=CC(=O)C=C[C@]4(C)[C@@]3(F)[C@@H](O)C[C@]2(C)[C@@]1(O)C(=O)CO [Dexamethasone]
[8]
  Anti-OVA IgE: 27.4

## O=C(O)c1[nH]c2cc(Cl)ccc2c1NC(=O)C1CCNCC1 [Example 82, 3-((4-Piperidineacyl)amino)-6-chloro-1H-indole-2-carboxylic acid]
[2]
  IC50: 0.15 µM
[4]
  IC50: > 10 µM
[5]
  IC50: > 10 µM
[6]
  IC50: > 10 µM
[7]
  IC50: > 10 µM
